Measured values as given in patent US5736523A, “Antineoplastic heteronapthoquinones” (Biochem Pharma Inc., priority 1995, dated 1998).

Key:
[1] = test system: SKVLB (Ovarian; multidrug resistant); test: In vitro cytotoxicity, microculture tetrazolium (MTT) assay, SKVLB; type: cell-based, human; conditions: for IC50: SKVLB, multidrug resistant, read-out: IC50; for VLB/OV3: ratio SKVLB / SKOV3
How it was run: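 Multidrug-resistant ovarian SKVLB cells exposed 48 h at 37 °C to 1:3 serial dilutions (100 μM–1.7 nM), then 48 h in fresh medium. MTT reduction read at 570 nm after DMSO extraction; four-parameter logistic fit normalized to 0–100% survival.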

[2] = test system: MAT-B; test: In vitro antitumor activity, MAT-B; type: cell-based
Method: (§1) The microculture tetrazolium assay was used to test in vitro cytotoxicity. This assay is described in Plumb, J. A. et al., 1989 Cancer Research 49, 4435-4440, which is herein incorporated by reference. The cytotoxicity of compounds towards tumor cells is measured in vitro using the assay. This assay method is based upon the ability of live, but not dead cells to reduce the yellow water soluble dye 3-(4;5-dimethylthiazol-2-yl)-2,5-diphenyltetrazolium bromide (MTT) to its water insoluble purple formazan product.
(§2) The plate layout is done in the following manner: The assays are carried out in 96-well (8 well×12 well) microtiter plates. Serial dilutions of the compound are tested along the length of the plate. A 1:3 serial dilution of compound in culture medium covers a concentration range from 100 μM to 1.7 nM. Each concentration of compound is tested in quadruplet, allowing two compounds to be tested per plate. Wells containing no cells (blank) and cells with no test compound (control) are included on each plate.
(§3) Cells are plated out in 100 μl of culture medium in the microtiter plates at a density of around 1,500-4,000 cells per well. […] The plates are shaken briefly and the absorbance at 570 nm is read using a Molecular Devices UV max plate reader. […]

[3] = test system: MAT-B/ADR; test: In vitro antitumor activity, MAT-B/ADR; type: cell-based
Method: as §1, §2, §3

[4] = test system: T47D (Ductal carcinoma of breast); test: In vitro cytotoxicity, microculture tetrazolium (MTT) assay, T47D; type: cell-based, human; conditions: read-out: IC50
Method: (§4) In Vitro Cytotoxicity--Microculture Tetrazolium Assay
as §1
(§5) Human Tumor Cell lines, used were:
T47D (Ductal carcinoma of breast)--ATCC catalog #HTB-133.
(§6) The cells were maintained in exponential growth in culture in minimal essential media (MEM) supplemented with non-essential amino acids, and containing 15% (v/v) fetal bovine serum, 5 mM L-glutamine, 1 mM sodium pyruvate, and 0.1 U/ml insulin. All cell lines were grown at 37° C. in an atmosphere of 5% CO2 in air.
(§7) Test compounds: 20 mM in DMSO and diluted to a final concentration of 200 μM in culture medium before use.
(§8) The following is the generic description of the assay method. It should be noted that although the conditions described work well with the cells listed above, the initial plating density and the MTT concentration used should be verified for each new cell line used to test compounds.
(§9) For each assay, doxorubicin is included as an inter-assay standard. This allows us to monitor the behaviour of the assay in general, and in particular, to check that the SKVLB line has maintained its resistant phenotype.
as §2
(§10) Cells are plated out in 100 μl of culture medium in the microtiter plates at a density of around 1,500-4,000 cells per well. The plates are incubated overnight to allow the cells to become adherent after which the test compound is added (100 μl of appropriate dilution per well). The cells are incubated with test compound at 37° C. for 48 h after which the compound is replaced with fresh medium. After a further 48 h incubation at 37° C., 50 μl of MTT solution (2 mg/ml) is added to each well. The plates are incubated in the dark for 4 h at 37° C. after which the medium is removed. The MTT formazan product is extracted from the cells by the addition of 200 μl DMSO followed by 50 μl of Sorensen's buffer. The plates are shaken briefly and the absorbance at 570 nm is read using a Molecular Devices UV max plate reader. Curves are fit to the MTT assay data using a four parameter logistic equation, and the data are normalized to fit a 0% to 100% survival scale.

[5] = test system: Lox (Melanoma); test: In vitro cytotoxicity, microculture tetrazolium (MTT) assay, Lox; type: cell-based, human; conditions: read-out: IC50
Method: as §4, §1, §5
Lox (Melanoma)--Southern Research Institute.
as §6, §7, §8, §9, §2, §10

[6] = test system: MCF-7; test: In vitro antitumor activity, MCF-7; type: cell-based
Method: as §1, §2, §3

[7] = test system: HT 29 (Colon adenocarcinoma); test: In vitro cytotoxicity, microculture tetrazolium (MTT) assay, HT 29; type: cell-based, human; conditions: HT29; read-out: IC50
Method: as §4, §1, §5
HT 29 (Colon adenocarcinoma) ATCC catalog #HTB-38.
as §6, §7, §8, §9, §2, §10

[8] = test system: SKOV3 (Ovarian adenocarcinoma); test: In vitro cytotoxicity, microculture tetrazolium (MTT) assay, SKOV3; type: cell-based, human; conditions: SKOV3; read-out: IC50
Method: as §4, §1, §5
SKOV3 (Ovarian adenocarcinoma)--provided by Dr. V. Ling,
as §6, §7, §8, §9, §2, §10

[9] = test system: MCF-7/ADR; test: In vitro antitumor activity, MCF-7/ADR (adriamycin resistant); type: cell-based
Method: as §1, §2, §3

[10] = Med. Res. Rev. 1981; cited from earlier work
[11] = Med. Res. Rev. 1981; cited from earlier work; remark: listed apart in the source
[12] = literature; cited from earlier work

In the case of `CC(=O)[C@H]1CC2=C(C(=O)c3ccccc3C2=O)[C@H](OC2C[C@H](NC(=O)C(F)(F)F)[C@H](O)[C@H](C)O2)O1` (stereo partly drawn) [BCH1146, (1'S,1S,3R)-Methyl (5,10-dioxo-1-(2',3',6'-trideoxy-3'-trifluoroacetamido-4'-hydroxy-L-lyxohexopyranose)-3,4,5,10-tetrahydronaphtho [2,3-C]pyran-3-yl) ketone], the IC50 [1] is reported as 6970 nM, the VLB/OV3 [1] is reported as 7.82 and the IC50 [2] is reported as 460 nM. The IC50 [3] was 560 nM, the IC50 [4] was 5870 nM and the IC50 [5] was 3820 nM. The IC50 [6] was 44 nM, the “potency in breast cancer, MCF-7, against adriamycin” value ([6]; breast cancer) was “less potent than adriamycin” and the IC50 [7] was 910 nM. The IC50 [8] was 891 nM, the IC50 ([9]; MCF-7/ADR) was 190 nM and the “effectiveness in the sensitive and adriamycin resistant cell line” value ([9]; MCF-7 sensitive vs adriamycin resistant) was “nearly as effective in the sensitive and adriamycin resistant cell line”.
For `C[C@H]1O[C@@H]2CC(=O)O[C@@H]2C2=C1C(=O)c1c(O)cccc1C2=O` [kalafungin], the antifungal activity [10] is given as “antifungal activity” and the antibacterial activity [11] is given as “potent antibacterial”.
For `COC(=O)C1CC2=C(C(=O)c3c(cc4ccccc4c3O)C2=O)[C@@H](O[C@H]2C[C@H](NC(=O)C(F)(F)F)[C@H](O)[C@H](C)O2)O1` (stereo partly drawn) [pyranoanthraquinone (H)], the antitumor activity [12] is given as “possess antitumor activity”.
Work on `CC(=O)[C@@H]1CC2=C(C(=O)c3ccccc3C2=O)[C@@H](O[C@@H]2O[C@H](CO)[C@@H](O)[C@H](O)[C@H]2NC(=O)N(CCCl)N=O)O1` [BCH2038, (1'R,1R,3S)-3-aceto-5,10-dioxo-1-(2-deoxy-2-chloroethyl-nitrosoureido-D-glucopyranose)-3,4,5,10-tetrahydro-1H-naphtho-[2,3-C] pyran] yielded an IC50 [1] of 3500 nM, a VLB/OV3 [1] of 4.16 and an IC50 [4] of 2000 nM. The IC50 [5] was 173 nM, the IC50 [7] was 2000 nM and the IC50 [8] was 832 nM.
In the case of `CC1O[C@H]2CC(=O)O[C@H]2C2=C1C(=O)c1c(O)c3c(c(O)c1C2=O)[C@H]1C[C@@H](O)[C@]3(O)[C@@H](C)O1` (stereo partly drawn) [Granaticin], the antitumor activity [12] is listed as “show antitumor activity”.
Work on `CC(=O)C1CC2=C(C(=O)c3ccccc3C2=O)C(OC2CC(NC(=O)C(F)(F)F)C(O)C(C)O2)O1` (stereo not drawn) [BCH2144] yielded an IC50 [1] of 16100 nM, a VLB/OV3 [1] of 0.75 and an IC50 [4] of 7220 nM. The IC50 [5] was 3280 nM, the IC50 [7] was 5930 nM and the IC50 [8] was 21400 nM.
For `C[C@@H]1O[C@@H](CC(=O)O)CC2=C1C(=O)c1c(O)cccc1C2=O` [nanaomycin A], the antifungal activity [10] is listed as “antifungal activity” and the antibacterial activity [11] is listed as “potent antibacterial”.
